The structures appear in SMILES notation.

This note sets out measurements from patent US11851406B2, “Positive allosteric modulators of the muscarinic acetylcholine receptor M1” (Vanderbilt University, priority 2018, dated 2023).

In assay [1] the target is T1, human mAChR M1 (Homo sapiens, UniProt P11229).
T1 sequence (P11229 1-460): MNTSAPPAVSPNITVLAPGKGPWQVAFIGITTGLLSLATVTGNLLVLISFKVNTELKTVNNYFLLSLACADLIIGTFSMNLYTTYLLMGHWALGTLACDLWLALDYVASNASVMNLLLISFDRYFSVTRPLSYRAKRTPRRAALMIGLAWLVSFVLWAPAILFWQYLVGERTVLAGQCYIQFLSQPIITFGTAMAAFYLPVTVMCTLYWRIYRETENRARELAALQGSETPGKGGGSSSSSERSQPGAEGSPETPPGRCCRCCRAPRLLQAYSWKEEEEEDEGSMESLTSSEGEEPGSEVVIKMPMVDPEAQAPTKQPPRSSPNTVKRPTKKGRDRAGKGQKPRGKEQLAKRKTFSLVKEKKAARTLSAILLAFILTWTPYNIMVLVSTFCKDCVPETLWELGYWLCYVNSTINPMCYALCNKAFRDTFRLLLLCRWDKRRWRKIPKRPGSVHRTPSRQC
As to the kind of experiment: mAChR M1 cell-based functional assay (calcium mobilization), PAM activity: increase in the EC20 acetylcholine response. As to conditions: CHO-K1 cells expressing hM1; calcium flux (Fluo-4); potentiation of EC20 acetylcholine response. An excerpt: (§1) Chinese hamster ovary (CHO-K1) cells stably expressing rat (r)M1 were purchased from the American Type Culture Collection and cultured according to their indicated protocol. CHO cells stably expressing human (h)M2, hM3, and hM5 were described previously (Levey, et al., 1991); hM1 and hM4 cDNAs were purchased from Missouri S&T cDNA Resource; rM4 cDNA was provided by T. I. Bonner (National Institutes of Health, Bethesda, Md.). rM2 and rM3 were cloned from a rat brain cDNA library and sequence verified. hM1, rM2, rM3, hM4, and rM4 cDNAs were used to stably transfect CHO-K1 cells purchased from the American Type Culture Collection using Lipofectamine2000. To make stable rM2, hM2, rM3, hM4, and rM4 cell lines for use in calcium mobilization assays, these cells also were stably transfected with a chimeric G-protein (Gqi5) (provided by B. R. Conklin, University of California, San Francisco) using Lipofectamine 2000. rM1, hM1, rM3, hM3, rM5, and hM5 cells were grown in Ham's F-12 medium containing 10% heat-inactivated fetal bovine serum (FBS), 20 mM HEPES, and 50 μg/mL G418 sulfate. rM2-Gqi5, hM2-Gqi5, and hM4-Gqi5 cells were grown in the same medium also containing 500 μg/mL Hygromycin B. Stable rM4-Gqi5 cells were grown in DMEM containing 10% heat-inactivated FBS, 20 mM HEPES, 400 μg/mL G418 sulfate, and 500 μg/mL Hygromycin B.
(§2) For high throughput measurement of agonist-evoked increases in intracellular calcium, CHO-K1 cells stably expressing muscarinic receptors were plated in growth medium lacking G418 and hygromycin at 15,000 cells/20 μL/well in Greiner 384-well black-walled, tissue culture (TC)-treated, clear-bottom plates (VWR). Cells were incubated overnight at 37° C. and 5% CO2. The next day, cells were washed using an ELX 405 (BioTek) with four washes (80 μL) of assay buffer then aspirated to 20 μL. Next, 20 μL of 16 μM Fluo-4/acetoxymethyl ester (Invitrogen, Carlsbad, Calif.) prepared as a 2.3 mM stock in DMSO and mixed in a 1:1 ratio with 10% (w/v) Pluronic F-127 and diluted in assay buffer was added to the wells and the cell plates were incubated for 50 min at 37° C. and 5% CO2. Dye was removed by washing with the ELX 405 (four 80 μL washes of assay buffer) then aspirated to 20 μL. Compound master plates were formatted in an 11 point CRC format (1:3 dilutions) in 100% DMSO with a starting concentration of 10 mM using the BRAVO liquid handler (Agilent). Test compound CRCs were then transferred to daughter plates (240 nL) using the Echo acoustic plate reformatter (Labcyte, Sunnyvale, Calif.) and then diluted into assay buffer (40 μL) to a 2× stock using a Thermo Fisher Combi (Thermo Fisher Scientific, Waltham, Mass.).
(§3) Calcium flux was measured using the Functional Drug Screening System (FDSS) 6000 (Hamamatsu Corporation, Tokyo, Japan) as an increase in the fluorescent static ratio. Compounds were applied to cells (20 μL, 2×) using the automated system of the FDSS 6000 at 4 s into the 300 s protocol and the data were collected at 1 Hz. At 144 s into the 300 s protocol, 10 μL of an EC20 concentration of the muscarinic receptor agonist acetylcholine was added (5×), followed by the addition of 12 μL an EC80 concentration of acetylcholine at the 230 s time point (5×). Agonist activity was analyzed as a concentration-dependent increase in calcium mobilization upon compound addition. Emax values for agonist activity are expressed relative to the maximum for acetylcholine. Positive allosteric modulator activity was analyzed as a concentration-dependent increase in the EC20 acetylcholine response. Antagonist activity was analyzed as a concentration-dependent decrease in the EC80 acetylcholine response. Concentration-response curves were generated using a four-parameter logistical equation in XLfit curve fitting software (IDBS, Bridgewater, N.J.) for Excel (Microsoft, Redmond, Wash.) or Prism (GraphPad Software, Inc., San Diego, Calif.).
In general terms: Calcium flux is commonly read through the fluorescence of an indicator in the cells.

The target of assay [2] is T1, human mAChR M1. As to the kind of experiment: mAChR M1 cell-based functional assay (calcium mobilization), agonist activity upon compound addition alone. The note with it: CHO-K1 cells expressing hM1; for EC50: calcium mobilization upon compound addition, no acetylcholine; for Emax: compound alone, relative to the maximum for acetylcholine.
From the text: as §1, §2, §3

Usually Emax stands for the maximal effect, on the per cent scale that the assay sets. As a reminder, the EC50 is the concentration needed to bring the measured effect to its halfway point. As for `Cn1ccc(-c2ccc(Cc3cc(C(=O)NC4CCOCC4)nc(-n4cccn4)c3)cc2)n1` [Compound 30, 4-(4-(1-methyl-1H-pyrazol-3-yl)benzyl)-6-(1H-pyrazol-1-yl)-N-(tetrahydro-2H-pyran-4-yl)picolinamide], the Emax in assay [1] was found to be 65%. Besides, in assay [2], the EC50 is above 10 µM and the maximal effect (Emax) is below 5%.

On to `Cn1ccc(-c2ccc(Cc3cc(C(=O)NC4CC5(COC5)C4)nc(-n4cccn4)c3)cc2)n1` [Compound 31, 4-(4-(1-methyl-1H-pyrazol-3-yl)benzyl)-6-(1H-pyrazol-1-yl)-N-(2-oxaspiro[3.3]heptan-6-yl)picolinamide], for which the Emax in assay [1] is 56%. In assay [2], the EC50 was above 10 µM and the Emax was below 5%.

Take `Cn1ccc(-c2ccc(Cc3cc(C(=O)N[C@H]4CC[C@@H]4O)nc(-n4cccn4)c3)cc2)n1` [Compound 32, N-((1S,2S)-2-hydroxycyclobutyl)-4-(4-(1-methyl-1H-pyrazol-3-yl)benzyl)-6-(1H-pyrazol-1-yl)picolinamide]: the maximal response (Emax) is 46% in assay [1] and below 5% in assay [2]. In addition, in assay [2], the concentration giving a half-maximal response (EC50) is above 10 µM.

Turning to `Cn1ccc(-c2ccc(Cc3cc(C(=O)N[C@H]4CCC[C@@H]4O)nc(-n4cccn4)c3)cc2)n1` [Compound 33, N-((1S,2S)-2-hydroxycyclopentyl)-4-(4-(1-methyl-1H-pyrazol-3-yl)benzyl)-6-(1H-pyrazol-1-yl)picolinamide], the results for the EC50 in assay [1] and in assay [2] were 5.51 µM and above 10 µM, respectively. Further, the Emax in assay [1] was 69%; in assay [2] it was below 5%.

As to `Cn1ccc(-c2ccc(Cc3cc(C(=O)N[C@H]4CCCC[C@@H]4O)nc(-c4ccn(C)n4)c3)cc2)n1` [Compound 34, N-((1S,2S)-2-hydroxycyclohexyl)-6-(1-methyl-1H-pyrazol-3-yl)-4-(4-(1-methyl-1H-pyrazol-3-yl)benzyl)picolinamide], in assay [1], the 50% effective concentration (EC50) was 2.02 µM and the Emax was determined as 63%. In assay [2], the half-maximal effective concentration (EC50) was above 10 µM and the maximal effect (Emax) is below 5%.

`Cn1ccc(-c2ccc(Cc3cc(C(=O)NC4CCOCC4)nc(-c4ccn(C)n4)c3)cc2)n1` [Compound 35, 6-(1-methyl-1H-pyrazol-3-yl)-4-(4-(1-methyl-1H-pyrazol-3-yl)benzyl)-N-(tetrahydro-2H-pyran-4-yl)picolinamide]: the Emax in assay [1] came to 46%. Besides, in assay [2], the EC50 is above 10 µM and the Emax was below 5%.

As for `Cn1ccc(-c2ccc(Cc3cc(C(=O)NC4CC5(COC5)C4)nc(-c4ccn(C)n4)c3)cc2)n1` [Compound 36, 6-(1-methyl-1H-pyrazol-3-yl)-4-(4-(1-methyl-1H-pyrazol-3-yl)benzyl)-N-(2-oxaspiro[3.3]heptan-6-yl)picolinamide], in assay [1], the half-maximal effective concentration (EC50) came out at 3.71 µM and the Emax worked out at 38%. In addition, in assay [2], the EC50 is above 10 µM and the maximal effect (Emax) is below 5%.

With `Cn1ccc(-c2ccc(Cc3cc(C(=O)N[C@H]4CCOC[C@@H]4O)nc(-c4ccn(C)n4)c3)cc2)n1` [Compound 37, N-((3R,4S)-3-hydroxytetrahydro-2H-pyran-4-yl)-6-(1-methyl-1H-pyrazol-3-yl)-4-(4-(1-methyl-1H-pyrazol-3-yl)benzyl)picolinamide], in assay [1], the EC50 was determined as 1.56 µM and the Emax was determined as 76%. In assay [2], the half-maximal effective concentration (EC50) was above 10 µM and the Emax is below 5%.

Turning to `Cn1ccc(-c2ccc(Cc3cc(C(=O)N[C@H]4CCC[C@@H]4O)nc(-c4ccn(C)n4)c3)cc2)n1` [Compound 38, N-((1S,2S)-2-hydroxycyclopentyl)-6-(1-methyl-1H-pyrazol-3-yl)-4-(4-(1-methyl-1H-pyrazol-3-yl)benzyl)picolinamide], in assay [1], the EC50 stood at 2.72 µM and the Emax stood at 39%. Besides, in assay [2], the half-maximal effective concentration (EC50) is above 10 µM and the Emax was below 5%.
